Assay results taken from US20120270183A1, “METHOD OF TREATING AND/OR PREVENTING CONDITIONS CAUSED BY MICROORGANISMS USING AN ORAL LIGHT DEVICE” (COLGATE-PALMOLIVE COMPANY, priority 2009, published 2012).
Entries after “also recorded” stand apart in the source; their conditions may differ.

system: biofilm of A. naeslundi; assay: Biofilm reduction by photosensitizer plus light; assay type: cell-based; conditions: 0.1% photosensitizer in the presence of light
Method: Bacterial biofilms (24 h old) were treated with the photosensitizers or photo-triggered actives described in the tables below at a concentration less than their minimum inhibitory concentration (MIC). The actives were either pre-incubated before light exposure for 2 s to 15 min, typically less than 2 min, or administered at the same time the biofilm was exposed to the light. The bacteria were irradiated at a set wavelength for 2 s to 15 min (typically less than 2 min) at an energy dose between 1-450 J/cm^2. Optical power densities typically ranged from 1-500 mW/cm^2. Light was either pulsed or provided in one continuous light exposure. Pulsed light treatments were preferred for high optical energy treatments.
On a biofilm of A. naeslundi, the impact of four “photosensitizers” (0.1% concentration) in the presence of light was evaluated. MIC typically ranged from 0.0001% (w/v) to 1% (w/v). The percent biofilm reduction is tabulated below.

Row | Compound | Biofilm reduction compared to light alone (in words)
1 | COc1cc(S(=O)(=O)[O-])c(C)cc1N=Nc1c(O)ccc2cc(S(=O)(=O)[O-])ccc12.[Na+].[Na+] [Allura Red, Allura Red AC] | increased biofilm reduction compared to light alone
2 | CCN(Cc1cccc(S(=O)(=O)[O-])c1)c1ccc(C(=C2C=CC(=[N+](CC)Cc3cccc(S(=O)(=O)[O-])c3)C=C2)c2ccc(O)cc2S(=O)(=O)[O-])cc1.[Na+].[Na+] [Fast Green, Fast Green FCF] | increased biofilm reduction compared to light alone
3 | CN(C)c1ccc(C(=C2C=CC(=[N+](C)C)C=C2)c2c(O)c(S(=O)(=O)[O-])cc3cc(S(=O)(=O)[O-])ccc23)cc1.[Na+] [Lissamine Green B] | increased biofilm reduction compared to light alone
4 | Cc1cc2nc3c(=O)[nH]c(=O)nc-3n(C[C@H](O)[C@H](O)[C@H](O)CO)c2cc1C [Riboflavin] | increased biofilm reduction compared to light alone
5 | O=C([O-])C1=NN(c2ccc(S(=O)(=O)[O-])cc2)C(=O)C1N=Nc1ccc(S(=O)(=O)[O-])cc1.[Na+].[Na+].[Na+] (stereo not drawn) [Tartrazine] | increased biofilm reduction compared to light alone

system: TNFα of HEPM cells stimulated by IL-1β; assay: Cytokine (TNFα) concentration in IL-1β stimulated cell culture after light plus dye; assay type: cell-based, human; conditions: Fast Green at 1000 ppm combined with light at 625 nm for 2 minutes, 9 mW/cm^2, 1.1 J/cm^2
Method: Cells used in this example include human embryonic palatal mesenchymal (HEPM) cells and oral keratinocytes OBA9 cells. The embodiments also can be used with other cells such as human gingival fibroblasts (HGF). Cells were seeded in 24-well plates and cultured until reaching a confluence above 80%. The confluent-stage cells were treated with stimulants such as IL-1β followed by light irradiation alone, or light irradiation combined with GRAS photosensitizing dye. The cells were either pre-incubated in photosensitizing dye before light exposure, or administered at the same time of light exposure. The cells were incubated in photosensitizing dyes for varied amounts of time, the concentration of photosensitizing dyes were varied, and the cell were irradiated with light for varied amounts of time per exposure, as well as irradiation either one time or multiple times, as described below. After irradiation, the cells were incubated at 37° C. The cell culture media was collected after a certain amount of time for cytokine analysis.
The results tabulated below reveal that visible light (various wavelength, 380-700 nm) alone and photosensitizing dye irradiated with visible light (various wavelength, 380-700 nm) have anti-inflammation effect. […]

Row | Compound | Effect on TNFα concentration (in words)
6 | CCN(Cc1cccc(S(=O)(=O)[O-])c1)c1ccc(C(=C2C=CC(=[N+](CC)Cc3cccc(S(=O)(=O)[O-])c3)C=C2)c2ccc(O)cc2S(=O)(=O)[O-])cc1.[Na+].[Na+] [Fast Green, Fast Green FCF] | can decrease pro-inflammation cytokine TNFα concentration; also recorded: can reduce concentration of TNFα
